Laboratory results from patent US20080206149A1, “METHOD, DYE AND MEDICAMENT FOR STAINING THE INTERNAL LIMITING MEMBRANE, EPIRETINAL MEMBRANE, THE VITREOUS AND/OR THE CAPSULE OF AN EYE” (LUDWIG-MAXIMILIANS-UNIVERSITAT MUNCHEN, priority 2005, published 2008).

Tests used:
primary RPE cells [1] = assay: Life-dead assay (propidium iodide / Hoechst 33342), primary RPE cells; format: cell-based
Method: Invest Ophthalmol Vis Sci 2002; 43: 3575-82.
(§1) Confluent RPE and ARPE-19 cells were prepared and treated as described above. Cell viability was quantified based on a two-color fluorescence assay in which the nuclei of nonviable cells appear red because of staining by the membrane-impermeable dye propidium iodide (Sigma), whereas the nuclei of all cells were stained with the membrane-permeable dye Hoechst 33342 (Intergen, Purchase, N.Y.). […] For evaluation of cell viability, cells were washed in PBS and incubated with 2.0 μg/mL propidium iodide and 1.0 μg/mL Hoechst 33342 for 20 minutes at 37° C. Subsequently, cells were analyzed with an epifluorescence microscope (Axioskop; Zeiss, Göttingen, Germany). The labeled nuclei were then counted in fluorescence photomicrographs, and dead cells were expressed as a percentage of total nuclei in the field. The data are based on counts from three experiments performed in duplicate wells, with three to five documented representative fields per well.

ARPE-19 cells [2] = assay: Life-dead assay (propidium iodide / Hoechst 33342), ARPE-19 cells; format: cell-based
Method: as §1

lens capsule [3] = assay: Staining of the lens capsule in enucleated porcine eyes; settings: injected into air-filled anterior chamber, removed after one minute; clear porcine lens as background
Method: Additionally, the staining characteristics of the lens capsule in enucleated porcine eyes with a postmortem time of nine hours were evaluated. The dyes were injected into the air-filled anterior chamber and removed by irrigation after one minute. Then, the cornea was removed and a capsulorhexis was performed with a bent needle. All procedures were taped on video.

primary RPE cells [4] = assay: MTT assay, primary RPE cells; settings: 0.2% and 0.02% dye, 10 minutes exposure, compared to BSS plus control
From the text: In brief, whole eyes were thoroughly cleansed in 0.9% NaCl solution, immersed in 5% polyvinyl pyrrolidone iodine, and rinsed again in the sodiumchloride solution. The anterior segment from each donor eye was removed and the posterior poles were examined with the aid of a binocular stereomicroscope to confirm the absence of gross retinal disease. Next, the neural retinas were carefully peeled away from the RPE-choroid-sclera using fine forceps. The eye cup was rinsed with Ca^2+ and Mg^2+-free Hank's balanced salt solution, and filled with 0.25% trypsin (GIBCO, Karlsruhe, Germany) for 30 min at 37° C. The trypsin was carefully aspirated and replaced with Dulbecco's modified eagles medium (DMEM, Biochrom, Berlin, Germany) supplemented with 20% fetal calf serum (FCS, Biochrom). Using a pipette, the media was gently agitated, releasing the RPE into the media by avoiding damage to Bruch's membrane. The RPE cell solution was transferred to a 50 ml flask (Falcon, Wiesbaden, Germany) containing 20 ml of DMEM (Biochrom) supplemented with 20% FCS (Biochrom) and maintained at 37° C. and 5% carbon dioxide. […] After having grown to confluency (100%), primary RPE cells were subcultured and maintained in DMEM (Biochrom) supplemented with 10% FCS (Biochrom) at 37° C. and 5% carbon dioxide. Primary RPE of passage 3-6 and ARPE-19 cells were used for experiments.
For exposure of dyes RPE and ARPE-19 cells were kept for 24 hours under serum free conditions. After washing cells three times with PBS, cells were incubated for 10 minutes with 300 μl of BSS plus containing 0.2% or 0.02% of dye, respectively. […] The dye was then removed by carefully rinsing cells with BSS plus three times. After 24 hours incubation with serum containing media the cell proliferation assay was performed. […]
The tetrazolium dye-reduction assay (MTT; 3-[4,5-dimethylthiazol-2-yl]-2,5-diphenyl tetrazolium bromide;) was used to determine cell survival rate. […] Absorption was measured by a scanning multiwell spectrophotometer at 550 nm (Molecular Probes, Garching, Germany). […]

vitreous = assay: Staining of the vitreous during pars plana vitrectomy in porcine eyes; format: in vivo; settings: graded by two examiners
Method: All dyes were dissolved and diluted using balanced salt solution (BSS plus; Alcon Laboratories Inc., Fort Worth, Tex).
Experiments were performed in animals (porcine eyes) and humans after approval of the local ethics committee had been obtained. All experiments were performed in compliance with the Declaration of Helsinki.
Ophthalmic surgery consisted of a standard pars plana vitrectomy. First, the transparent vitreous was removed as completely as possible. Then fluid air exchange was performed in order to avoid an uncontrolled distribution of the dye in the vitreous cavity. The dye was then injected into the air filled globe. After a period of one minute, the dye was washed out by irrigation with BSS. This was followed by an injection of the dye in concentrations from 0.2% to 2%. The staining of the vitreous was graded by two examiners who also performed the surgical procedures.

lens capsule [5] = assay: Staining of lens capsule removed during intraocular surgery; settings: concentrations of 0.5% or less; dye removed after one minute
Method: (§2) The following four dyes were examined as examples for the inventive dyes in the present study: Light green yellowish SF (LG SF), E68, Bromophenol blue (BPB) and Chicago blue (CB). ICG (Pulsion, Munich, Germany) was used as a reference. All dyes were dissolved and diluted with balanced salt solution (BSS plus; Alcon Laboratories Inc., Fort Worth, Tex.) and concentrations of 1.0, 0.5, 0.2 and 0.05% were obtained. Dry ICG powder was first dissolved with sterile water provided by the manufacturer resulting in a 0.5% solution and then further diluted using BSS plus to a concentration of 0.05%. The dyes were then used to stain lens capsule and epiretinal membranes removed during intraocular surgery. Immediately after removal, the material was placed on a glass slide and covered with a few drops of the dye. After one minute, the dye was carefully removed by irrigation using BSS plus. Lens capsule and epiretinal tissue was then evaluated macroscopically and using light microscopy. The staining effect was subjectively graded as “excellent, good, fair or absent” by one unmasked person and photographs were taken.

ARPE-19 cells [6] = assay: MTT assay, ARPE-19 cells; settings: 0.2% and 0.02% dye, 10 minutes exposure, compared to BSS plus control
Method: ARPE-19 cells, a human retinal pigment epithelial cell line (42), were purchased from ATCC (Manassas, Va., USA) and grown in a 1:1 mixture of Dulbecco's modified Eagles medium and Ham's F12 medium (DMEM/Ham's F12, Biochrom), supplemented with 10% FCS (Biochrom).
For exposure of dyes RPE and ARPE-19 cells were kept for 24 hours under serum free conditions. After washing cells three times with PBS, cells were incubated for 10 minutes with 300 μl of BSS plus containing 0.2% or 0.02% of dye, respectively. […] The dye was then removed by carefully rinsing cells with BSS plus three times. After 24 hours incubation with serum containing media the cell proliferation assay was performed. RPE cells (p3-6) were seeded in 24-well plates and exposed to two concentrations (0.2 and 0.02%) of dyes. BSS plus alone and H2O2, (200 μL/mL) served as controls.
The tetrazolium dye-reduction assay (MTT; 3-[4,5-dimethylthiazol-2-yl]-2,5-diphenyl tetrazolium bromide;) was used to determine cell survival rate. […] The medium was removed, cells were washed with PBS, and 1000 μL/well MTT solution (1.5 mL MTT stock, 2 mg/mL in PBS, plus 28.5 mL DMEM) was added. RPE cells were incubated at 37° C. for 1 hour. The formazan crystals that formed were dissolved by the addition of dimethyl sulfoxide (DMSO; 1000 μL/well). Absorption was measured by a scanning multiwell spectrophotometer at 550 nm (Molecular Probes, Garching, Germany). […] Experiments were performed in triplicate and repeated three times. RPE and ARPE-19 cells of the same passage incubated with BSS without addition of dyes served as control. Statistical comparison between dye concentrations was performed with SPSS (Mann-Whitney-U-Test).
The MTT test as performed in this study is a well established test for the assessment of cell viability, but relies on calorimetric measurement of a blue (550 nm) formazan reaction product. This color overlaps with the absorption spectra of some of the dyes tested. […] Cell monolayers were treated with dyes as per the experiments described above but absorbance readings were performed without prior application of MTT. […]

[7] = system: epiretinal membranes (ERM); assay: Staining of epiretinal membranes removed during intraocular surgery; settings: concentration of 1%; dye removed after one minute
Method: as §2

[8] = Light absorbing properties (UV/VIS/NIR spectrometer); format: physicochemical; settings: measured up to a content of 0.05% dye
Method: Light absorption was measured in 0.05% solutions, with BSS plus as a solvent medium. Light absorption was measured instantly after preparation of a stock solution of the dye using a UV/VIS/NIR Spectrometer (Lambda 900, Perkin Elmer) between 200 and 1000 nm.

CCN(Cc1cccc(S(=O)(=O)O)c1)c1ccc(C(=C2C=CC(=[N+](CC)Cc3cccc(S(=O)(=O)O)c3)C=C2)c2ccc(S(=O)(=O)O)cc2)cc1.[Na+].[Na+] [Light green SF]
cell viability, nuclei of nonviable cells labeled with propidium iodide (primary RPE cells [1]): significantly affect cell viability
toxicity of 0.02% in comparison to the 0.2% dye solution (primary RPE cells [1]): far less toxic
cell viability, nuclei of nonviable cells labeled with propidium iodide (ARPE-19 cells [2]): significantly affect cell viability
toxicity of 0.02% in comparison to the 0.2% dye solution (ARPE-19 cells [2]): far less toxic
staining of the lens capsule in porcine eyes (lens capsule [3]): weak staining effects
cell survival of primary RPE cells (MTT) (primary RPE cells [4]): no influence on cell survival
staining effect of the vitreous (vitreous; dye concentration 0.2%): strong
staining effect of the vitreous (vitreous; dye concentration 2.0%): strong
staining effect in removed lens capsule material (lens capsule [5]): did not stain lens capsule sufficiently
cell survival of ARPE-19 cells (MTT) (ARPE-19 cells [6]): no significant impact on cell survival
staining of ERM [7]: weak staining
position of the long wavelength maximum, influence of dye concentration [8]: not influenced by the dye concentration

Copperphtalocyanine-3,4′,4″,4′″-tetrasulphonic acid tetrasodium salt [E68]
cell viability, nuclei of nonviable cells labeled with propidium iodide (primary RPE cells [1]): did not affect cell survival
cell viability, nuclei of nonviable cells labeled with propidium iodide (ARPE-19 cells [2]): did not affect cell survival
staining of the lens capsule in porcine eyes (lens capsule [3]): stained well
staining effect of the vitreous (vitreous; dye concentration 0.2%): weak
staining effect of the vitreous (vitreous; dye concentration 2.0%): strong

Chicago blue
cell viability, nuclei of nonviable cells labeled with propidium iodide (primary RPE cells [1]): significantly affect cell viability
cell viability, nuclei of nonviable cells labeled with propidium iodide (ARPE-19 cells [2]): significantly affect cell viability
staining of the lens capsule in porcine eyes (lens capsule [3]): stained well
cell survival of primary RPE cells (MTT) (primary RPE cells [4]): no influence on cell survival
staining effect of the vitreous (vitreous; dye concentration 0.2%): weak
staining effect of the vitreous (vitreous; dye concentration 2.0%): strong
cell survival of ARPE-19 cells (MTT) (ARPE-19 cells [6]): no significant impact on cell survival
position of the long wavelength maximum, influence of dye concentration [8]: not influenced by the dye concentration
